From patent publication US9295732B2, “Conjugated TLR7 and/or TLR8 and TLR2 polycationic agonists” (CAYLA, priority 2013, dated 2016)

System: B16-F1 tumor
Assay: In vivo mouse B16-F1 tumor model, molecule alone
Parameters: species or system C57BL/6 mice
Conditions: by day 23, intra-tumoral injections, FIG. 8A
Method: Measurements were performed under gas anesthesia.
The second group received intra-tumoral injections of CL413 molecule alone (a TLR7-TLR2 Pam2CSK4-based molecule). Third and forth groups received intra-tumoral injections of the TLR2 ligand, Pam2CSK4 alone, and the TLR7 ligand alone, respectively. A fifth group received a combined treatment of Pam2CSK4 and TLR7 ligand, in solution at the equivalent molecule quantity of the respective TLR2 and TLR7 moieties in CL413 (in 100 μl Bionolyte G5® with Pluronic® F-68 2%) for a total of 3 injections.

## (6S,9S,12S,15S,18S,21R)-6,25-diamino-21-(4-((6-amino-2-(butylamino)-8-hydroxy-9H-purin-9-yl)methyl)phenylcarbamoyl)-12,15,18-tris(4-aminobutyl)-9-(hydroxyl methyl)-7,10,13,16,19-pentaoxo-4-thia-8,11,14,17,20-pentaazapentacosane-1,2-diyl dipalmitate [CL413]
  tumor volume: no increase in tumor volume
